Data reported in patent US9657033B2, “Tetrahydronaphthyridine and related bicyclic compounds for inhibition of RORγ activity and the treatment of disease” (Merck Sharp & Dohme Corp., priority 2012, dated 2017).

How the values were obtained:
RORγ-LBD [1] = target: T1, RORγ-LBD (Homo sapiens (Human), UniProt P51449); test: RORγ-Ligand Binding Domain (LBD) TR-FRET Assay Protocol II; type: biochemical; conditions: purified RORγ-LBD, SRC1 peptide, overnight at 4° C.
Experimental: Part II—Procedures for RORγ-Ligand Binding Domain TR-FRET Assay Protocol II
HIS-tagged RORγ-LBD protein was expressed in SF9 cells using a baculovirus expression system. The RORγ-LBD protein was purified by […]. Separately, SF9 cells not expressing recombinant protein were lysed in TBS buffer (25 mM Tris, pH 8.0, 150 mM NaCl) under sonication. The lysate was added to the purified RORγ-LBD in a volume equivalent of 0.75 μL lysate (from 30,000 SF9 cells) per 75 femtomol of RORγ-LBD protein. The resulting mixture was diluted in assay buffer (50 mM Tris pH 7.0, 50 mM KCl, 1 mM EDTA, 0.1 mM DTT, 0.01% BSA) to obtain RORγ-LBD protein at a final concentration of 3 nM.
Compounds to be tested were injected to the assay plate using Acoustic Droplet Ejection technology by Echo 550 liquid handler (Labcyte, Calif.).
A stock of biotinylated-LXXLL peptide from coactivator SRC1 (Biotin-[…]) was prepared in assay buffer and added to each well (100 nM final concentration). A solution of Europium tagged anti-HIS antibody (1.25 nM final concentration) and APC-conjugated streptavidin (8 nM final concentration) were also added to each well.
The final assay mixture was incubated overnight at 4° C., and the fluorescence signal was measured on an Envision plate reader: (Excitation filter=340 nm; APC emission=665 nm; Europium emission=615 nm; dichroic mirror=D400/D630; delay time=100 μs, integration time=200 μs). The EC50 value for test compounds was calculated from the quotient of the fluorescence signal at 665 nm divided by the fluorescence signal at 615 nm

RORγ-LBD [2] = target: T1, RORγ-LBD; test: RORγ-Ligand Binding Domain (LBD) TR-FRET Assay Protocol I; type: biochemical; conditions: RORγ-LBD lysate from SF9 cells, SRC1-2 peptide
Experimental: Part I—Procedures for RORγ-Ligand Binding Domain TR-FRET Assay Protocol I
Recombinant,HIS-tagged RORγ-LBD was expressed in SF9 cells using a baculovirus expression system. Cells were lysed and the lysate was used as a source for RORγ-LBD for the assay. A 1:80 dilution of RORγ-LBD lysate in assay buffer (25 mM HEPES pH 7.0, 100 mM NaCl, 0.01% Tween, 0.1% BSA) was prepared and 5 μL was added to each well (RORγ-LBD final concentration ˜3 nM). Control wells received lysate from SF9 cells not expressing RORγ-LBD.
Compounds to be tested were diluted to 100× final test concentration in DMSO and further diluted to 4× final test concentration using assay buffer to provide the test compound mixture. An aliquot (5 μL) of the test compound mixture was added to each well.
A 4× stock of biotinylated-LXXLL peptide from SRC1-2 (Biotin-[…]) was prepared in assay buffer and a 5 μL aliquot added to each well (450 nM final concentration). A 4× solution of europium tagged anti-HIS antibody (2 nM final concentration) and APC conjugated streptavidin (60 nM final concentration) were prepared and a 5 μL aliquot added to each well.
The final assay mixture was incubated for 4 hours to overnight, and the fluorescence signal was measured on an Envision plate reader: (Excitation filter=340 nm; APC emission=665 nm; Europium emission=615 nm; dichroic mirror=D400/D630; delay time=100 μs, integration time=200 μs).
EC50 values for test compounds were calculated from the quotient of the fluorescence signal at 665 nm divided by the fluorescence signal at 615 nm using GraphPad Prism software

T1 sequence (P51449 269-508): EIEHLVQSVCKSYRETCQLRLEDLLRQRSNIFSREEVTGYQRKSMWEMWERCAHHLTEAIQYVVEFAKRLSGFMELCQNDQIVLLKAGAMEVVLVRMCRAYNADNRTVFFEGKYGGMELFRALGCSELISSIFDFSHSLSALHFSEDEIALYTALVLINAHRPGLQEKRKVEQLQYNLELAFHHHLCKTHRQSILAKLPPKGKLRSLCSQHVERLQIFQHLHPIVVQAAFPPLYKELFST

EC50 (RORγ-LBD [1])	EC50 (RORγ-LBD [2])	SMILES
123 nM	336 nM	CC(=O)NC[C@H]1CN(S(=O)(=O)c2cccc(C)c2)c2cc(NC(=O)c3c(F)cccc3Cl)cnc2O1 [Compound 16, (S)-N-(3-(acetamidomethyl)-1-(m-tolylsulfonyl)-2,3-dihydro-1H-pyrido[2,3-b][1,4]oxazin-7-yl)-2-chloro-6-fluorobenzamide]
22 nM	166 nM	Cc1cccc(S(=O)(=O)N2C[C@H](C)Oc3ncc(NC(=O)c4c(F)cccc4Cl)cc32)c1 [Compound 14, (S)-2-chloro-6-fluoro-N-(3-methyl-1-(m-tolylsulfonyl)-2,3-dihydro-1H-pyrido[2,3-b][1,4]oxazin-7-yl)benzamide]
6 nM	132 nM	Cc1cccc(S(=O)(=O)N2C[C@H](C)Oc3ncc(NC(=O)c4c(F)cccc4C(F)(F)F)cc32)c1 [Compound 24]
70 nM	1030 nM	C[C@H]1CN(S(=O)(=O)c2cccc(C#N)c2)c2cc(NC(=O)c3c(F)cccc3Cl)cnc2O1 [Compound 25]
66 nM	250 nM	CC1COc2ncc(NC(=O)c3c(F)cccc3Cl)cc2N1S(=O)(=O)c1ccc(F)cc1 (stereo not drawn) [Compound 12, 2-chloro-6-fluoro-N-[1-(4-fluorobenzenesulfonyl)-2-methyl-2,3-dihydro-1H-pyrido[2,3-b][1,4]oxazin-7-yl]benzamide]
4330 nM	3620 nM	O=C(Nc1cc2c(cn1)cnn2S(=O)(=O)c1cccc(C(F)(F)F)c1)c1c(F)cccc1Cl [Compound 10]
108 nM	390 nM	CC1COc2ncc(NC(=O)c3c(F)cccc3Cl)cc2N1S(=O)(=O)c1cccc(C#N)c1 (stereo not drawn) [Compound 20]
25 nM	1880 nM	O=C(Nc1cnc2cnn(S(=O)(=O)c3cccc(C(F)(F)F)c3)c2c1)c1c(F)cccc1Cl [Compound 1, 2-chloro-6-fluoro-N-[1-(3-trifluoromethylbenzenesulfonyl)-1H-pyrazolo[4,3-b]pyridin-6-yl]benzamide]
16 nM	52 nM	Cc1cccc(S(=O)(=O)N2CCCc3ncc(NC(=O)c4c(F)cccc4Cl)cc32)c1 [Compound 37, 2-chloro-6-fluoro-N-(5-(m-tolylsulfonyl)-5,6,7,8-tetrahydro-1,5-naphthyridin-3-yl)benzamide]
73 nM	810 nM	Cc1cccc(S(=O)(=O)N2C[C@H](C)Oc3ncc(NC(=O)[C@@H](C)c4ccccc4)cc32)c1 [Compound 28]
387 nM	3050 nM	C[C@H](C(=O)Nc1cnc2c(c1)N(S(=O)(=O)c1ccc(F)cc1)C[C@H](C)O2)c1ccccc1 [Compound 29]
10 nM	31 nM	CCc1cccc(S(=O)(=O)N2C[C@H](C)Oc3ncc(NC(=O)c4c(F)cccc4Cl)cc32)c1 [Compound 15, (S)-2-chloro-N-(1-((3-ethylphenyl)sulfonyl)-3-methyl-2,3-dihydro-1H-pyrido-[2,3-b][1,4]oxazin-7-yl)-6-fluorobenzamide]
